{"source": "paper PMC5618191", "about": "(Toxins, 2017)", "format_in_all_cases": "cell-based, human", "key": {"KB-3-1 cells [1]": {"tested_on": "KB-3-1 cells", "assay": "Cell cycle analysis (PI staining, flow cytometry)", "conditions": "KB-3-1, subtoxic concentrations", "experimental": "1. Supplementary Materials and Methods\nKB-3-1 cells (3.5x105/per well) were seeded into 6-well plates and treated the next day with the […]\nAfter incubation at 37°C for another 24 h, cells were trypsinized, centrifuged (8 min, 300g, RT) and fixed in 70% ethanol and stored at -20°C overnight.\nFixed cells were centrifuged (1 min, 6000g) and resuspended in 100 µL of 0.9% NaCl. RNA was digested with 0.2 mg/mL of RNase for 30 min at 37°C. DNA was stained with propidium iodide (PI, 0.01 mg/mL, Sigma-Aldrich St. Louis, Missouri, USA) for 30 min at 4°C in the dark. Afterwards, cells were analyzed by flow cytometry using FACS Calibur (BD Biosciences, Franklin Lakes, New Jersey, USA) as described previously. CellQuest Pro software (BD Biosciences) was utilized to determine percentages of the respective cell cycle phases. […]\nThe following primary […]\n(§1) antibodies specific for the following targets were diluted 1:1000 in TBST/3% BSA (w/v): PARP, Bak, Bax, Bim, Bcl-xL (polyclonal, Cell Signaling Technology, Beverly, MA, USA), caspase 9, cl. caspase 9 (monoclonal, Cell Signaling Technology) and β-actin (monoclonal, Clone AC-15, Sigma-Aldrich).\nSecondary horseradish peroxidase-labeled antibodies (goat anti-rabbit or anti-mouse, Santa Cruz Biotechnology, Dallas, Texas, TX, USA) were diluted 1:10,000 in TBST/1% BSA. […]"}, "[2]": {"tested_on": "HaCaT non-malignant keratinocytes", "assay": "Cell viability assay (MTT, 72 h)", "experimental": "(§2) For the cell lines KB-3-1 and SW480 2 × 10^3 cells, for NIH/3T3, CT-26, HaCaT, and GH354 cells 3 × 10^3 cells and for ME-180 and SW620 cells 4 × 10^3 cells were seeded into 96-well pates and incubated at 37 °C (5% CO2) overnight. […] For higher cell confluency, NIH/3T3, CT-26, HaCaT, KB-3-1, and SW480 cells were grown to a cell density of approximately 50–60% before treatment. […] The percentage of viable cells was detected after incubation with 3-(4,5-dimethylthiazol-2-yl)-2,5-diphenyltetrazolium bromide (MTT) at 37 °C for 1–4 h, depending on the cell line, according to the user manual (EZ4U, Biomedica, Vienna, Austria). […] All experiments were conducted using full-growth media with 10% FBS in triplicate and repeated three times. The cell confluency was analyzed by Image J 1.50i (NIH, New York, NY, USA)."}, "[3]": {"tested_on": "ME-180 cervix metastasis cells", "assay": "Cell viability assay (MTT, 72 h)", "conditions": "ME-180, sparse (5–10% confluency)", "experimental": "as §2"}, "[4]": {"tested_on": "SW480 colorectal adenocarcinoma cells", "assay": "Cell viability assay (MTT, 72 h)", "experimental": "as §2"}, "[5]": {"tested_on": "KB-3-1 cervix carcinoma cells", "assay": "Cell viability assay (MTT, 72 h)", "experimental": "as §2"}, "[6]": {"tested_on": "GH354 cervix adenocarcinoma cells", "assay": "Cell viability assay (MTT, 72 h)", "conditions": "GH354, sparse (5–10% confluency)", "experimental": "as §2"}, "[7]": {"tested_on": "SW620 colon metastasis cells", "assay": "Cell viability assay (MTT, 72 h)", "experimental": "as §2"}, "KB-3-1 cells [8]": {"tested_on": "KB-3-1 cells", "assay": "Western blot analysis of apoptosis proteins", "conditions": "KB-3-1, 24 h", "experimental": "1. Supplementary Materials and Methods […]\n1.3 Western Blot Analysis […]\nas §1, with “according to standard procedures, separated by SDS-PAGE, and transferred to a polyvinylidene difluoride membrane for Western blotting as described previously. The following primary antibodies” for “antibodies”\nSecondary horseradish peroxidase-labeled antibodies (goat anti-rabbit or anti-mouse, Santa Cruz Biotechnology, Dallas, Texas, TX, USA) were diluted 1:10,000 in TBST/1% BSA.\n(black circles), human non-malignant keratinocytes HaCaT (open circles), murine colon carcinoma CT-26 (asterisks), human cervix carcinoma KB-3-1 (gray triangle) and human colon carcinoma SW480 cells (gray square) at higher density. Cells were grown to a 50-60% confluence and treated with the […]\nThe IC50 level is indicated by the dotted line. Mean values (± SD) of one representative experiment in triplicate are shown.\nFigure S4. […]\nSignificant differences to untreated controls are marked by asterisks (***p<0.001). (c) Expression of PARP and caspase 9 and amount of cleaved (Cl.) PARP and cleaved Caspase 9, as well as protein expression of Bim, Bax, Bak and Bcl-xL in beauvericin-treated (24 h) and untreated cells were determined by Western Blotting. β-actin served as loading control. […]"}, "[9]": {"conditions": "SW480, sparse (5–10% confluency)"}, "[10]": {"conditions": "KB-3-1, sparse (5–10% confluency)"}, "[11]": {"conditions": "SW620, sparse (5–10% confluency), 72 h"}}, "note": "Like-named read-outs stand apart in the source and are kept apart here.", "data": [{"substance": "beauvericin", "values": [{"measurement": "Cell cycle effect", "setting": "KB-3-1 cells [1]", "result": "cell cycle arrest in the G0/G1-phase"}, {"measurement": "IC50", "setting": "[2]; higher density (50–60% confluency), read-out: IC50 value", "result": "> 10", "unit": "µM"}, {"measurement": "Mean IC25 ± SD", "setting": "[2]; sparse (5–10% confluency)", "result": "2.7 ± 0.2", "unit": "µM"}, {"measurement": "Mean IC75 ± SD", "setting": "[2]; sparse (5–10% confluency)", "result": "4.8 ± 0.7", "unit": "µM"}, {"measurement": "IC50", "setting": "[2]; sparse (5–10% confluency), read-out: Mean IC50 ± SD", "result": "3.9 ± 0.4", "unit": "µM"}, {"measurement": "Mean IC25 ± SD", "setting": "[3]", "result": "1.6 ± 0.8", "unit": "µM"}, {"measurement": "Mean IC75 ± SD", "setting": "[3]", "result": "4.5 ± 1.2", "unit": "µM"}, {"measurement": "IC50", "setting": "[3]; read-out: Mean IC50 ± SD", "result": "2.2 ± 0.7", "unit": "µM"}, {"measurement": "IC50", "setting": "[4]; SW480, higher density (50–60% confluency), read-out: IC50 value", "result": 3.7, "unit": "µM"}, {"measurement": "Mean IC25 ± SD", "setting": "[4]; [9]", "result": "2.1 ± 1.3", "unit": "µM"}, {"measurement": "Mean IC75 ± SD", "setting": "[4]; [9]", "result": "4.2 ± 2.7", "unit": "µM"}, {"measurement": "IC50", "setting": "[4]; SW480, sparse (5–10% confluency), read-out: Mean IC50 ± SD", "result": "3.3 ± 0.3", "unit": "µM"}, {"measurement": "IC50", "setting": "[5]; KB-3-1, higher density (50–60% confluency), read-out: IC50 value", "result": 4.3, "unit": "µM"}, {"measurement": "Mean IC25 ± SD", "setting": "[5]; [10]", "result": "2.6 ± 0.9", "unit": "µM"}, {"measurement": "Mean IC75 ± SD", "setting": "[5]; [10]", "result": "3.6 ± 0.9", "unit": "µM"}, {"measurement": "IC50", "setting": "[5]; KB-3-1, sparse (5–10% confluency), read-out: Mean IC50 ± SD", "result": "3.1 ± 0.7", "unit": "µM"}, {"measurement": "Mean IC25 ± SD", "setting": "[6]", "result": "2.2 ± 0.6", "unit": "µM"}, {"measurement": "Mean IC75 ± SD", "setting": "[6]", "result": "6.3 ± 2.1", "unit": "µM"}, {"measurement": "IC50", "setting": "[6]; read-out: Mean IC50 ± SD", "result": "3.6 ± 1.2", "unit": "µM"}, {"measurement": "Mean IC25 ± SD", "setting": "[7]; [11]", "result": "0.3 ± 0.02", "unit": "µM"}, {"measurement": "Mean IC75 ± SD", "setting": "[7]; [11]", "result": "1.9 ± 0.2", "unit": "µM"}, {"measurement": "IC50", "setting": "[7]; SW620, sparse (5–10% confluency), 72 h, read-out: Mean IC50 ± SD", "result": "0.7 ± 0.1", "unit": "µM"}, {"measurement": "IC50 of SW620 lower as compared to SW480", "setting": "[7]; sparse conditions", "result": 4.7, "unit": "fold"}, {"measurement": "IC50 of SW620 lower than normal HaCaT cells", "setting": "[7]; sparse conditions", "result": 5.6, "unit": "fold"}, {"measurement": "Antiapoptotic Bcl-xL", "setting": "KB-3-1 cells [8]", "result": "reduced"}, {"measurement": "Cleavage of PARP and caspase 9", "setting": "KB-3-1 cells [8]", "result": "induced"}, {"measurement": "Proapoptotic Bcl-2 family members Bim and Bak", "setting": "KB-3-1 cells [8]", "result": "upregulation"}]}]}
